{"source": "paper PMC3093405", "about": "“A Motif Unique to the Human Dead-Box Protein DDX3 Is Important for Nucleic Acid Binding, ATP Hydrolysis, RNA/DNA Unwinding and HIV-1 Replication” (PLoS ONE, 2011)", "key": {"[1]": {"system": "partially dsDNA substrates (18/38-mer)", "test": "DNA helicase assay", "type": "biochemical", "description": "(§1) The helicase activity of DDX3wt and mutant forms was monitored by measuring the conversion of a double stranded (ds) DNA or RNA (labelled at the 5′-end of one strand with a 6-FAM fluorescent group) into single stranded (ss) nucleic acid. For the RNA helicase assay, a 18/36mer ds RNA oligonucleotide with both 3′ and 5′-protruding ss ends was used. For the DNA helicase assay, three different dsDNA substrates were used, all of them composed of the same 18mer oligonucleotide 5′-FAM labelled and three different 38 mer oligonucleotides with the sequence complementary to the 18 mer at different positions. Annealing of the 18 mer to each of the 38 mer generated the different DNA substrates shown in Fig. 5 A. A final concentration of 20 nM RNA or DNA substrate was used in the experiments, unless otherwise stated. The amounts of the different DDX3 proteins are indicated in the respective Figures.\n(§2) Reactions were performed in 50 mM TrisHCl pH 7.5, 1 mM DTT, 0.2 mg/ml BSA, 5% glycerol and 1 mM ATP, 10 mM MgCl2 at 37°C degrees for 10′ and stopped by adding EDTA 50 mM pH 8. Products were separated on a native 7% PAGE […] at 5 W in TBE buffer with 0.1% SDS at 4°C for 2 hours for RNA substrates, 4 hours for DNA substrates. Substrates and products were quantified by laser scanning densitometry (Thyphoon-TRIO, GE Healthcare). For trap-assays, the enzyme and the RNA substrate were incubated on ice for 4 min, in the absence of ATP. Reactions were started by addition of ATP and a 50-fold molar excess (1 µM) of r(A)40 trap RNA oligonucleotide, followed by incubation at 37°C for the indicated times."}, "[2]": {"system": "18/36mer ds RNA oligonucleotide", "test": "RNA helicase assay", "type": "biochemical", "description": "as §1, §2\nVariation of the amount of unwound RNA substrate as a function of time was fitted to a simple exponential equation: [drawing 4] (4) where MAX is the amount of unwound substrate extrapolated at infinite time, kuw is the apparent rate of unwinding."}, "[3]": {"test": "ATPase time-course (burst kinetics)", "type": "biochemical", "description": "(§3) The ATPase activity was determined, as previously described, by directly monitoring [γ-^32P] ATP hydrolysis by thin-layer chromatography (TLC). ATP (3000 Ci/mmol) as tracer, plus 1 mM of cold ATP, unless otherwise stated, and nucleic acids as indicated. Samples were incubated for 5 minutes at 25°C and dotted onto TLC sheets of polyethylenimine cellulose. The products were separated by ascending chromatography with 0.5 M KH2PO4 (pH 3.4). The intensities of the radioactive bands corresponding to ATP and Pi were quantified by densitometric scanning with PhosphoImager. For the stimulation of the ATPase activity, the ssDNA oligonucleotide oligo(dT)20 or the ssRNA oligonucleotide oligo (rU)20 were used. Time-course experiments were performed under the conditions described above. Samples were taken at different time points and processed as described above.\nVariation of the ATPase reaction as a function of time was fitted to the mixed-exponential equation: [drawing 3] (3) where [P] is the concentration of products (pmols) at any given time point, t is time, Aburst is the burst amplitude, k burst is the rate of the exponential phase, k ss is the rate of the steady-state linear phase."}, "[4]": {"test": "ATPase activity assay ([γ-32P]ATP hydrolysis, TLC), steady-state kinetics", "type": "biochemical", "description": "as §3\nATPase reactions were performed as described, in the presence of increasing amounts of nucleic acids and variable ATP concentrations. […] The relative -fold increase in the ATPase velocities 1−(vDNA/v) as a function of the nucleic acid concentrations was fitted to the hyperbolic relationship: [drawing 2] (2) where vNA is the apparent velocity of the reaction in the presence of nucleic acid, v is the velocity in its absence, KD is the apparent affinity for the nucleic acid and [NA] is the concentration of the nucleic acid substrate. The symbol KD is used, instead of Km, solely to reflect the fact that the NA is not a reactant (i.e. it is not converted into products) but only a cofactor of the reaction, without implying any assumption on the nature of the microscopic rates contributing to the KD value itself."}, "DDX3wt": {"molecular_target": "T1, DDX3wt (Homo sapiens, UniProt O00571)", "T1 construct": "DDX3wt (aa 1–662), and the N-DDX3 (aa 1–427); N-terminal peptide of ~3 kDa comprising 6xHis (pTrcHisA) (N); seven additional amino acids KQGCFGG (C); made in house; host or cells: E. coli BL-21", "T1 sequence (O00571 whole entry, the tested form may be a part)": "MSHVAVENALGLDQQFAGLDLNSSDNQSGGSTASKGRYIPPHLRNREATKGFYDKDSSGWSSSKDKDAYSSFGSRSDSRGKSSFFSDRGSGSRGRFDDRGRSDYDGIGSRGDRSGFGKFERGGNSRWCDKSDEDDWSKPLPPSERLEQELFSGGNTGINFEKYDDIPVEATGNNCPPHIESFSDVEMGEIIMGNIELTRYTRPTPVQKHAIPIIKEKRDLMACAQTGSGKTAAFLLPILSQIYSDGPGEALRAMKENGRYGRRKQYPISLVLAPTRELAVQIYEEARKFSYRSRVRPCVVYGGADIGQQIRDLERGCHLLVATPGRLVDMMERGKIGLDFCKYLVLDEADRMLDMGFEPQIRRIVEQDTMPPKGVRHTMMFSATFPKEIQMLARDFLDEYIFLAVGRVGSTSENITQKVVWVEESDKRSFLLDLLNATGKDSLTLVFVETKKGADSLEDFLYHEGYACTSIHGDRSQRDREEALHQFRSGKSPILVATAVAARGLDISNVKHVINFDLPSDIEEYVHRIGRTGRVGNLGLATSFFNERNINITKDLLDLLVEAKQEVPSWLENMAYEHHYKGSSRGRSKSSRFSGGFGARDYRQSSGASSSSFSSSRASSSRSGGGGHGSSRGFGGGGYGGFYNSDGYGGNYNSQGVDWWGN", "test": "Inhibition of DDX3wt ATPase activity", "type": "biochemical", "settings": "increasing amounts of inhibitor", "description": "as §3"}, "N-DDX3": {"molecular_target": "T2, N-DDX3 (Homo sapiens, UniProt O00571)", "T2 construct": "The N-DDX3 mutant (aa 1–427) was obtained using the forward primer; N-terminal peptide of ~3 kDa comprising 6xHis (pTrcHisA) (N); seven additional amino acids KQGCFGG (C); made in house; host or cells: E. coli BL-21", "T2 sequence (O00571 1-427)": "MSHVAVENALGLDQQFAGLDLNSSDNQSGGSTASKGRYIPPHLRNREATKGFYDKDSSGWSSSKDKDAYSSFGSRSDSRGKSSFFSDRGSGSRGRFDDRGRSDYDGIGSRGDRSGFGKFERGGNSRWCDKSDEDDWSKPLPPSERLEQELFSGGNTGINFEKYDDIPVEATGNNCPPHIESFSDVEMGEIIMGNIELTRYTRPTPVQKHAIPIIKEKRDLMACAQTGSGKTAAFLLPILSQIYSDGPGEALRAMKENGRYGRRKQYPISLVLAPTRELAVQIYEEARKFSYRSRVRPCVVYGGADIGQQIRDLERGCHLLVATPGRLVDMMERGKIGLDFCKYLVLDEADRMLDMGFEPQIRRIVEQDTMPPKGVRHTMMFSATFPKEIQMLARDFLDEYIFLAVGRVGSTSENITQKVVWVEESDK", "test": "Inhibition of N-DDX3 ATPase activity", "type": "biochemical", "settings": "increasing amounts of inhibitor", "description": "as §3"}, "HelaP4 cells": {"system": "HelaP4 cells", "type": "cell-based", "description": "We therefore analyzed this peptide further, with respect to functional interference with HIV-1 replication. After fusion to a protein transduction domain, different amounts of the DDX3-INS1 peptide or a control peptide were transduced into HelaP4 cells 24 hours after infection with HIV-1Lai. HIV-1 infection was quantified 48–72 hours after infection by titering released HIV-1 in culture supernatants on Tzm-bl cells based on measuring the luciferase activity in the cell lysates. […] The DDX3-INS1 peptide was not toxic for the cells in the concentration range used (data not shown). Thus, binding of the peptide ligand to the DDX3 insertion, interferes with HIV-1 replication further providing evidence of an important functional role of the DDX3 insertion not only for enzymatic functions, but also for HIV-1 replication."}, "[5]": {"settings": "relative to absence of nucleic acid"}}, "note": "Ends that are not written are not given here."}
{"compound": "DDX3wt: recombinant full length human DDX3 (aa 1–662), N-terminal his-tagged, expressed in E. coli", "values": [{"measurement": "DNA unwinding", "setting": "[1]; DNA duplex with a single 5′-protruding end, 18/[5′]-38 mer", "result": "able to unwind"}, {"measurement": "DNA unwinding", "setting": "[1]; DNA duplex with both 5′- and 3′-protruding ssDNA ends, 18/[5′-3′]-38 mer", "result": "able to unwind"}, {"measurement": "DNA unwinding", "setting": "[1]; substrate with a 3′-ss DNA region, 18/[3′]-38 mer", "result": "not"}, {"measurement": "Reduction of RNA unwinding rate by addition of the trap", "setting": "[2]", "result": "about 2 fold"}, {"measurement": "k uw (apparent rate of RNA unwinding)", "setting": "[2]; +trap, 50-fold molar excess r(A)40 ssRNA, single-turnover", "result": "0.05 ± 0.01", "unit": "min⁻¹"}, {"measurement": "k uw (apparent rate of RNA unwinding)", "setting": "[2]; without trap", "result": "0.11 ± 0.02", "unit": "min⁻¹"}, {"measurement": "Aburst", "setting": "[3]; +DNA, oligo(dT)20", "result": "0.9 ± 0.1", "unit": "µM"}, {"measurement": "k burst", "setting": "[3]; +DNA, oligo(dT)20", "result": "9.5 ± 0.8", "unit": "min⁻¹"}, {"measurement": "k ss", "setting": "[3]; +DNA, oligo(dT)20", "result": "0.4 ± 0.03", "unit": "min⁻¹"}, {"measurement": "Aburst", "setting": "[3]; +RNA, oligo(rU)20", "result": "0.75 ± 0.1", "unit": "µM"}, {"measurement": "k burst", "setting": "[3]; +RNA, oligo(rU)20", "result": "7 ± 0.8", "unit": "min⁻¹"}, {"measurement": "k ss", "setting": "[3]; +RNA, oligo(rU)20", "result": "0.4 ± 0.09", "unit": "min⁻¹"}, {"measurement": "Aburst", "setting": "[3]; absence of nucleic acids", "result": "0.25 ± 0.05", "unit": "µM"}, {"measurement": "k burst", "setting": "[3]; absence of nucleic acids", "result": "4.1 ± 0.7", "unit": "min⁻¹"}, {"measurement": "k ss", "setting": "[3]; absence of nucleic acids", "result": "0.3 ± 0.08", "unit": "min⁻¹"}, {"measurement": "k cat", "setting": "[4]; +DNA, oligo(dT)20", "result": "0.0633 ± 0.0033", "unit": "s⁻¹"}, {"measurement": "k cat", "setting": "[4]; +RNA, oligo(rU)20", "result": "0.0533 ± 0.0017", "unit": "s⁻¹"}, {"measurement": "Intrinsic ability to hydrolyze ATP", "setting": "[4]; absence of nucleic acid", "result": "detectable ATPase activity"}, {"measurement": "k cat", "setting": "[4]; absence of nucleic acids", "result": "0.0267 ± 0.0033", "unit": "s⁻¹"}, {"measurement": "Increase of catalytic efficiency (kcat/Km) by DNA", "setting": "[4]; [5]", "result": 3.2, "unit": "fold"}, {"measurement": "Increase of catalytic efficiency (kcat/Km) by RNA", "setting": "[4]; [5]", "result": 2.8, "unit": "fold"}]}
{"compound": "O=C(CN1C(=O)/C(=C/c2cccc(Br)c2)SC1=S)Nc1ccccc1O", "note": "[FE15]", "values": [{"measurement": "Inhibition of ATP hydrolysis", "setting": "DDX3wt", "result": "inhibited"}, {"measurement": "Inhibition of ATP hydrolysis", "setting": "N-DDX3", "result": "inhibited"}]}
{"compound": "SDVPTQVGGRRRRRRRRR [DDX3-INS1]", "values": [{"measurement": "Toxicity for the cells", "setting": "HelaP4 cells", "result": "not toxic"}]}
